Reference: patent US7300929B2, “Mediators of hedgehog signaling pathways, compositions and uses related thereto” (Curis, Inc., priority 1999, dated 2007)

Key:
[1] = tested on: Patched pathway / ultraviolet radiation-induced BCC tumors; experiment: Adult BCC mouse skin punch assay; assay type: cell-based; details: positive control, 6 days, vs vehicle
Procedure: Ptc heterozygous transgenic mice were irradiated 3 times weekly for 6 months, during which time many small, and often microscopic, BCC tumors developed. Four-mm diameter skin punch explants, presumably containing BCC structures, were cultured for 6 days in the presence of vehicle, the positive control (jervine), or 5 μM D. At the end of the experiment, the explants were analyzed by X-gal staining to detect the level of Patched pathway activity, by histology to determine the effect of treatment on the morphology of ultraviolet radiation-induced BCCs, and by quantifying the level of gli-1 mRNA expression to characterize the extent of pathway inhibition.

[2] = tested on: Patched pathway in ptc-null cells; experiment: Ptc-null assay (gli-1 mRNA by RT-PCR and real-time PCR); assay type: cell-based, mouse; details: 3 days, 5 μM
Procedure: […] Total ribonucleic acid (RNA) was isolated from the cells and used for reverse transcriptase-polymerase chain reaction (RT-PCR). […] The gli-1 and actin mRNA samples were then loaded on 1.5% agarose gel and were detected by staining with ethidium bromide. The same samples were analyzed by the quantitative real-time polymerase chain reaction method to quantify the levels of gli-1 mRNA.

With `CC1=C2C(=O)[C@H]3[C@@H](CC=C4C[C@@H](O)CC[C@@]43C)[C@@H]2CC[C@]12O[C@@H]1C[C@H](C)CN[C@H]1[C@H]2C` [jervine] the “number and size of BCC structures (X-gal staining)” value [1] was “greatly decreased”, the “gli-1 mRNA levels (quantitative real-time PCR)” value [2] was “downregulated” and the “expression of gli-1 mRNA (RT-PCR, agarose gel)” value ([2]; vs vehicle) was “significantly decreased”.
